Experiments:
Assay type in all cases: cell-based
[1] = Cytotoxicity in PHH natural infection assay (Cell Counting Kit-8); conditions: HBV-infected primary human hepatocytes, CCK8
Method in brief: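 HBV-infected primary human hepatocytes (200 GE/cell, 4% PEG8000, 24 h), then sandwich-cultured 72 h. Cells dosed at varying concentrations for two 72-hour cycles, with medium refreshed. Cytotoxicity read by CCK-8 at end of treatment.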

HBeAg = assay: PHH HBV natural infection assay, HBeAg (alphalisa); conditions: Hepatitis B virus, Hepatocyte, read-out: HBeAg IC50
Method in brief: (§1)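 Primary human hepatocytes infected with HBV at 200 GE/cell plus 4% PEG8000 for 24 h, then sandwich-cultured 72 h in medium with 1% DMSO. Compound applied twice at 72-h intervals; supernatant HBsAg and HBeAg quantified by AlphaLISA.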

HBsAg = assay: PHH HBV natural infection assay, HBsAg (alphalisa); conditions: Hepatitis B virus, Hepatocyte, read-out: HBsAg IC50
Method in brief: as §1

SMILES	CC50 at 144 h [1]	IC50 (HBeAg)	IC50 (HBsAg)
CS(=O)(=O)CC(=O)NC1CCC2(CC1)CCN(c1nc3cc(Cl)ccc3o1)CC2 [Example 81, N-[3-(5-chloro-1,3-benzoxazol-2-yl)-3-azaspiro[5.5]undecan-9-yl]-2-methylsulfonyl-acetamide]	67.3 µM	2.28 µM	3.49 µM
CS(=O)(=O)Cc1ccc(C(=O)NC2CC3(C2)CN(c2nc4cc(Cl)ccc4o2)C3)o1 [Example 51, N-[2-(5-chloro-1,3-benzoxazol-2-yl)-2-azaspiro[3.3]heptan-6-yl]-5-(methylsulfonylmethyl)furan-2-carboxamide]	> 100 µM	1.95 µM	2.22 µM
O=C(NC1CCC2(CC1)CCN(c1nc3cc(Cl)ccc3o1)CC2)c1ccnc(C(F)(F)F)c1 [Example 105, N-[3-(5-chloro-1,3-benzoxazol-2-yl)-3-azaspiro[5.5]undecan-9-yl]-2-(trifluoromethyl)pyridine-4-carboxamide]	59 µM	1.03 µM	1.12 µM
Cc1cc(C(=O)NC2CC3(C2)CN(c2nc4cc(Cl)ccc4o2)C3)ccn1 [Example 45, N-[2-(5-chloro-1,3-benzoxazol-2-yl)-2-azaspiro[3.3]heptan-6-yl]-2-methyl-pyridine-4-carboxamide]	80.1 µM	1.3 µM	2.73 µM
C[S@](=N)(=O)c1ccc(C(=O)NC2CC3(C2)CN(c2nc4cc(Cl)ccc4o2)C3)o1 [Example 47, N-[2-(5-chloro-1,3-benzoxazol-2-yl)-2-azaspiro[3.3]heptan-6-yl]-5-[(S)-methylsulfonimidoyl]furan-2-carboxamide]	> 100 µM	2.31 µM	4.24 µM
CS(=O)(=O)Cc1ccc(C(=O)NC2CCC3(CC2)CCN(c2nc4cc(Cl)ccc4o2)CC3)o1 [Example 112, N-[3-(5-chloro-1,3-benzoxazol-2-yl)-3-azaspiro[5.5]undecan-9-yl]-5-(methylsulfonylmethyl)furan-2-carboxamide]	> 10 µM	4.24 µM	3.68 µM
CS(=O)(=O)CCC(=O)NC1CCC2(CC1)CCN(c1nc3cc(Cl)ccc3o1)CC2 [Example 83, N-[3-(5-chloro-1,3-benzoxazol-2-yl)-3-azaspiro[5.5]undecan-9-yl]-3-methylsulfonyl-propanamide]	98.6 µM	1.79 µM	2.49 µM
O=C(NC1CC2(C1)CN(c1nc3cc(Cl)ccc3o1)C2)c1ccc([S+]([O-])CC2CC2)o1 (stereo not drawn) [Example 61, N-[2-(5-chloro-1,3-benzoxazol-2-yl)-2-azaspiro[3.3]heptan-6-yl]-5-(cyclopropylmethylsulfinyl)furan-2-carboxamide]	96 µM	0.402 µM	0.189 µM
O=C(NC1CCC2(CC1)CCN(c1nc3cc(Cl)ccc3o1)CC2)C1CCS(=O)(=O)C1 (stereo not drawn) [Example 90, N-[3-(5-chloro-1,3-benzoxazol-2-yl)-3-azaspiro[5.5]undecan-9-yl]-1,1-dioxo-thiolane-3-carboxamide]	73.9 µM	1.08 µM	1.35 µM
CS(=O)(=O)N1CC(CC(=O)NCC2CCN(c3nc4cc(Cl)ccc4o3)CC2)C1 [Example 17, N-[[1-(5-chloro-1,3-benzoxazol-2-yl)-4-piperidyl]methyl]-2-(1-methylsulfonylazetidin-3-yl)acetamide]	> 10 µM	> 10 µM	8.23 µM
Cc1cc(C(=O)NC2CCC3(CC2)CCN(c2nc4cc(Cl)ccc4o2)CC3)ccn1 [Example 107, N-[3-(5-chloro-1,3-benzoxazol-2-yl)-3-azaspiro[5.5]undecan-9-yl]-2-methyl-pyridine-4-carboxamide]	> 100 µM	0.427 µM	0.496 µM
CC(C)C(=O)NC1CCC2(CC1)CCN(c1nc3cc(Cl)ccc3o1)CC2 [Example 79, N-[3-(5-chloro-1,3-benzoxazol-2-yl)-3-azaspiro[5.5]undecan-9-yl]-2-methyl-propanamide]	> 100 µM	11.6 µM	8.84 µM
CS(=O)(=O)c1cccc(C(=O)NCC2CCN(c3nc4cc(Cl)ccc4o3)CC2)c1 [Example 4, N-[[1-(5-chloro-1,3-benzoxazol-2-yl)-4-piperidyl]methyl]-3-methylsulfonyl-benzamide]	> 10 µM	5.74 µM	6.28 µM
O=C(NC1CCC2(CC1)CCN(c1nc3cc(Cl)ccc3o1)CC2)C1CCOC1 (stereo not drawn) [Example 86, N-[3-(5-chloro-1,3-benzoxazol-2-yl)-3-azaspiro[5.5]undecan-9-yl]tetrahydrofuran-3-carboxamide]	82.7 µM	2.8 µM	2.89 µM
CS(=N)(=O)c1ccc(C(=O)NC2CCC3(CC2)CCN(c2nc4cc(Cl)ccc4o2)CC3)o1 (stereo not drawn) [Example 109, N-[3-(5-chloro-1,3-benzoxazol-2-yl)-3-azaspiro[5.5]undecan-9-yl]-5-(methylsulfonimidoyl)furan-2-carboxamide]	> 100 µM	4.66 µM	5.88 µM
CC1(C(=O)NC2CCC3(CC2)CCN(c2nc4cc(Cl)ccc4o2)CC3)CCS(=O)(=O)C1 (stereo not drawn) [Example 93, N-[3-(5-chloro-1,3-benzoxazol-2-yl)-3-azaspiro[5.5]undecan-9-yl]-3-methyl-1,1-dioxo-thiolane-3-carboxamide]	> 100 µM	1.19 µM	1.82 µM
O=C(NC1CC2CN(c3nc4cc(Cl)ccc4o3)CC2C1)C1CCS(=O)(=O)C1 (stereo not drawn) [Example 124, N-[2-(5-chloro-1,3-benzoxazol-2-yl)-3,3a,4,5,6,6a-hexahydro-1H-cyclopenta[c]pyrrol-5-yl]-1,1-dioxo-thiolane-3-carboxamide]	> 100 µM	13 µM	6.59 µM
O=C(NC1CCC2(CC1)CCN(c1nc3cc(Cl)ccc3o1)CC2)C1CCC(F)(F)CC1 [Example 102, N-[3-(5-chloro-1,3-benzoxazol-2-yl)-3-azaspiro[5.5]undecan-9-yl]-4,4-difluoro-cyclohexanecarboxamide]	> 100 µM	3.77 µM	3.6 µM
C[S+]([O-])c1ccc(C(=O)NC2CC3(C2)CN(c2nc4cc(Cl)ccc4o2)C3)o1 (stereo not drawn) [Example 64, N-[2-(5-chloro-1,3-benzoxazol-2-yl)-2-azaspiro[3.3]heptan-6-yl]-5-methylsulfinyl-furan-2-carboxamide]	> 100 µM	1.54 µM	2.52 µM
Cc1ccc(S(=O)(=O)N2CCC(CC(=O)NCC3CCN(c4nc5cc(Cl)ccc5o4)CC3)C2)cc1 (stereo not drawn) [Example 18, N-[[1-(5-chloro-1,3-benzoxazol-2-yl)-4-piperidyl]methyl]-2-[1-(p-tolylsulfonyl)pyrrolidin-3-yl]acetamide]	> 10 µM	3.78 µM	3.9 µM
CC(C)(O)C(=O)NC1CC2(C1)CN(c1nc3cc(Cl)ccc3o1)C2 [Example 29, N-[2-(5-chloro-1,3-benzoxazol-2-yl)-2-azaspiro[3.3]heptan-6-yl]-2-hydroxy-2-methyl-propanamide]	> 100 µM	7.37 µM	7.13 µM
O=C(NC1CC2(C1)CN(c1nc3cc(Cl)ccc3o1)C2)c1ccnc(S(=O)(=O)C2CC2)c1 [Example 66, N-[2-(5-chloro-1,3-benzoxazol-2-yl)-2-azaspiro[3.3]heptan-6-yl]-2-cyclopropylsulfonyl-pyridine-4-carboxamide]	84.2 µM	0.608 µM	0.781 µM
